Our source for the IC50, inhibition and melting point values is US8466145B2, “Dipeptidyl peptidase IV inhibitors” (Orchid Chemicals & Pharmaceuticals Limited, priority 2009, dated 2013).

Where a name gives a salt, the structure may show the parent alone.

In one data set the target is T1, human recombinant Dipeptidyl peptidase IV enzyme (hrDPP IV) (Homo sapiens, UniProt P27487).
T1 construct: purchased R&D systems
T1 sequence (P27487 whole entry): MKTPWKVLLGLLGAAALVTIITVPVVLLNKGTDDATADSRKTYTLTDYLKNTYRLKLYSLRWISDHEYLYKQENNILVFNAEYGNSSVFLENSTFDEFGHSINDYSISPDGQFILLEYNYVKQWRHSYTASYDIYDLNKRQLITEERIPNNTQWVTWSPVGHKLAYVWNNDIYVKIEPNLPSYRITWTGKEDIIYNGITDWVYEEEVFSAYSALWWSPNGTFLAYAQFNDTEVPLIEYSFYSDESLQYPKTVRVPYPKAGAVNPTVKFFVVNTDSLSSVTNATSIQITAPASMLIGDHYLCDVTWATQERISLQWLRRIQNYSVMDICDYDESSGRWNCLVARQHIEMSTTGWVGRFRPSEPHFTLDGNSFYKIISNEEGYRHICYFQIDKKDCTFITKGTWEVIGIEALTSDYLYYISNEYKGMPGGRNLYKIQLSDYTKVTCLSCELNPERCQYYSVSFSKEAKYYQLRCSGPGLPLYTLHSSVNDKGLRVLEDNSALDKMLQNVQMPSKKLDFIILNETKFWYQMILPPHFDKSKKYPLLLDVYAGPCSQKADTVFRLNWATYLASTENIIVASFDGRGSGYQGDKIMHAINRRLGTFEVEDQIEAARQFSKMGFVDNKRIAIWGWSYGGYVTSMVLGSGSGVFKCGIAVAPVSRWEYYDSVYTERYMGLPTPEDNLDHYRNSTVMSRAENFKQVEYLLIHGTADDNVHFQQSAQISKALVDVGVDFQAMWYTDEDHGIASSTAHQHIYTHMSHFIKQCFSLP
As to the kind of experiment: DPP IV assay, cleavage of H-Gly-Pro-AMC by human recombinant DPP-IV enzyme. The class given is biochemical.
Conditions: not given
The procedure: DPP IV activity was determined by the cleavage rate of 7-amino 4-methylcoumarin (AMC) from the substrate H-Gly-Pro-AMC. In brief, the assay was conducted by adding 3 ng of human recombinant Dipeptidyl peptidase IV enzyme (hrDPP IV, available commercially from R&D systems) in 70 μL of the assay buffer (25 mM HEPES, 140 mM NaCl and 1% BSA, pH 7.8) to a 96 well black flat bottom microtitre plate. Test compounds were added as 10 μL additions to all wells except blank and total activity wells. After incubation of test substance with enzyme for 60 minutes at room temperature, 10 μL of 100 μM substrate H-Gly-Pro-AMC was added. After mixing, the plate was left for 20 minutes at room temperature. Then the reaction was terminated by addition of 10 μL of 25% glacial acetic acid. Fluorescence was measured using Spectra Max Gemini XS (Molecular Devices, USA) at an excitation filter of 360 nm and emission filter of 460 nm.
Test compounds dissolved in DMSO were diluted with assay buffer at different concentrations and tested in duplicates. Percentage inhibition was calculated with respect to total activity. IC50 value was calculated using Prism Software.
Turning to `CC1(C)[C@@H](Cn2ccnn2)CC[C@@]1(C)NCC(=O)N1C[C@@H](F)C[C@H]1C#N` [Example 11, (2S,4S)-1-(2-((1R,3S)-3-((1H-1,2,3-Triazol-1-yl)methyl)-1,2,2-trimethylcyclopentylamino)acetyl)-4-fluoropyrrolidine-2-carbonitrile], the IC50 (commonly the point on the concentration scale where inhibition reaches its midpoint) stood at 232 nM.
`CC1(C)[C@@H](CNS(=O)(=O)c2ccc(F)cc2)CC[C@@]1(C)NCC(=O)N1C[C@@H](F)C[C@H]1C#N` [Example 19, N-(((1S,3R)-3-(2-((2S,4S)-2-Cyano-4-fluoropyrrolidin-1-yl)-2-oxoethylamino)-2,2,3-trimethylcyclopentyl)methyl)-4-fluorobenzenesulfonamide]: the IC50 was 304.8 ± 2.1 nM.
`CC1(C)[C@H](CNc2ccc(C#N)cn2)CC[C@]1(C)NCC(=O)N1C[C@@H](F)C[C@H]1C#N` [Example 25, 6-(((1R,3S)-3-(2-((2S,4S)-2-Cyano-4-fluoropyrrolidin-1-yl)-2-oxoethylamino)-2,2,3-trimethylcyclopentyl)methylamino)nicotinonitrile]: the IC50 is 29.4 nM.
Turning to `CC1(C)[C@@H](Cn2cncn2)CC[C@@]1(C)NCC(=O)N1CCC[C@H]1C#N` [Example 9, (S)-1-(2-((1R,3S)-3-((1H-1,2,4-Triazol-1-yl)methyl)-1,2,2-trimethylcyclopentylamino)acetyl)pyrrolidine-2-carbonitrilemethanesulfonate], the IC50 was found to be 781 ± 91.6 nM.
For `CC1(C)[C@@H](CN2CCOCC2)CC[C@@]1(C)NCC(=O)N1C[C@@H](F)C[C@H]1C#N` [Example 33, (2S,4S)-4-Fluoro-1-(2-((1R,3S)-1,2,2-trimethyl-3-(morpholinomethyl)cyclopentylamino)acetyl)pyrrolidine-2-carbonitrile], the IC50 is 250 nM.
`CC1(C)[C@@H](Cn2cnnn2)CC[C@@]1(C)NCC(=O)N1C[C@@H](F)C[C@H]1C#N` [Example 31, (2S,4S)-1-(2-((1R,3S)-3-((1H-Tetrazol-1-yl)methyl)-1,2,2-trimethylcyclopentylamino)acetyl)-4-fluoropyrrolidine-2-carbonitrile methanesulfonate]: the IC50 worked out at 264 nM.
`CC1(C)[C@@H](Cn2cncn2)CC[C@@]1(C)NCC(=O)N1CCC[C@H]1C#N` [Example 8, (S)-1-(2-((1R,3S)-3-((1H-1,2,4-Triazol-1-yl)methyl)-1,2,2-trimethyleyclopentylamino)acetyl)pyrrolidine-2-carbonitrile]: the IC50 was 1170 ± 0.14 nM.
Take `CC1(C)[C@H](Cn2cncn2)CC[C@]1(C)NCC(=O)N1CCC[C@H]1C#N` [Example 7, (S)-1-(2-((1S,3R)-3-((1H-1,2,4-Triazol-1-yl)methyl)-1,2,2-trimethylcyclopentylamino)acetyl)pyrrolidine-2-carbonitrile methanesulfonate]: the IC50 came to 99.8 nM.
As to `CC1(C)[C@H](Cn2ccnn2)CC[C@]1(C)NCC(=O)N1C[C@@H](F)C[C@H]1C#N` [Example 13, (2S,4S)-1-(2-((1S,3R)-3-((1H-1,2,3-Triazol-1-yl)methyl)-1,2,2-trimethylcyclopentylamino)acetyl)-4-fluoropyrrolidine-2-carbonitrilemethane sulfonate], the concentration for half-maximal inhibition (IC50) stood at 27.8 nM.
As to `CC1(C)[C@@H](CNc2ccc(C#N)cn2)CC[C@@]1(C)NCC(=O)N1C[C@@H](F)C[C@H]1C#N` [Example 24, 6-(((1S,3R)-3-(2-((2S,4S)-2-Cyano-4-fluoropyrrolidin-1-yl)-2-oxoethylamino)-2,2,3-trimethylcyclopentyl)methylamino)nicotinonitrile], the IC50 turned out to be 134 nM.
Turning to `CC1(C)[C@H](Cn2cncn2)CC[C@]1(C)NCC(=O)N1CCC[C@H]1C#N` [Example 6, (S)-1-(2-((1S,3R)-3-((1H-1,2,4-Triazol-1-yl)methyl)-1,2,2-trimethylcyclopentylamino)acetyl)pyrrolidine-2-carbonitrile], the half-maximal inhibitory concentration (IC50) came to 123 nM.

Staying with this data set, now noted: 300 nM compound concentration.
With `CC1(C)[C@@H](CC#N)CC[C@@]1(C)NCC(=O)N1C[C@@H](F)C[C@H]1C#N` [Example 53, (2S,4S)-1-(2-((1R,3R)-3-(Cyanomethyl)-1,2,2-trimethylcyclopentylamino)acetyl)-4-fluoropyrrolidine-2-carbonitrile], the inhibition (in general, the share of the control response that was lost under treatment) at 0.3 µM worked out at 56.5%.
For the compound `CC1(C)[C@H](CN2CCCCC2)CC[C@]1(C)NCC(=O)N1C[C@@H](F)C[C@H]1C#N` [Example 40, (2S,4S)-4-Fluoro-1-(2-((1S,3R)-1,2,2-trimethyl-3-(piperidin-1-ylmethyl)cyclopentylamino)acetyl)pyrrolidine-2-carbonitrile], the inhibition at 0.3 µM came to 84.7%.
Same read-out and setting: to `CC1(C)[C@@]2(C)CC[C@]1(NCC(=O)N1C[C@@H](F)C[C@H]1C#N)COC2` [Example 81, (2S,4S)-4-Fluoro-1-(2-((1R,5R)-5,8,8-trimethyl-3-oxabicyclo[3.2.1]octan-1-ylamino)acetyl)pyrrolidine-2-carbonitrile] belongs 21.3%; to `CN1C[C@]2(C)CC[C@](NCC(=O)N3CCC[C@H]3C#N)(C1)C2(C)C` [Example 78, (S)-1-(2-((1R,5R)-3,5,8,8-Tetramethyl-3-azabicyclo[3.2.1]octan-1-ylamino)acetyl)pyrrolidine-2-carbonitrile], 23.3%.
Still for that read-out and setting: to `CC1(C)[C@@H](CNS(C)(=O)=O)CC[C@@]1(C)NCC(=O)N1C[C@@H](F)C[C@H]1C#N` [Example 17, N-(((1S,3R)-3-(2-((2S,4S)-2-Cyano-4-fluoropyrrolidin-1-yl)-2-oxoethylamino)-2,2,3-trimethylcyclopentyl)methyl)methanesulfonamide] belongs 46.6%; to `CC1(C)[C@@H](C(=O)N2CCCCC2)CC[C@@]1(C)NCC(=O)N1C[C@@H](F)C[C@H]1C#N` [Example 14, (2S,4S)-4-Fluoro-1-(2-((1R,3S)-1,2,2-trimethyl-3-(piperidine-1-carbonyl)cyclopentylamino)acetyl)pyrrolidine-2-carbonitrile], 73.2%; to `CC1(C)[C@]2(C)CC[C@@]1(NCC(=O)N1C[C@@H](F)C[C@H]1C#N)COC2` [Example 82, (2S,4S)-4-Fluoro-1-(2-((1S,5S)-5,8,8-trimethyl-3-oxabicyclo[3.2.1]octan-1-ylamino)acetyl)pyrrolidine-2-carbonitrile], 22.4%.
In the case of `CC1(C)[C@@]2(C)CC[C@]1(NCC(=O)N1CCC[C@H]1C#N)COC2` [Example 80, (S)-1-(2-((1R,5R)-5,8,8-Trimethyl-3-oxabicyclo[3.2.1]octan-1-ylamino)acetyl)pyrrolidine-2-carbonitrile], the inhibition at 0.3 µM came out at 2.28%.
Still for that read-out and setting: to `CC1(C)[C@@H](CN2CCC(O)CC2)CC[C@@]1(C)NCC(=O)N1C[C@@H](F)C[C@H]1C#N` [Example 41, (2S,4S)-4-Fluoro-1-(2-((1R,3S)-3-((4-hydroxypiperidin-1-yl)methyl)1,2,2-trimethylcyclopentylamino)acetyl)pyrrolidine-2-carbonitrile] belongs 26.1%.

Tested on in a further data set: not given
Assay: not given
Conditions: not given
For `CN1C(=O)[C@]2(C)CC[C@](NCC(=O)N3CCC[C@H]3C#N)(C1=O)C2(C)C` [Example 75, (S)-1-(2-((1R,5R)-3,5,8,8-Tetramethyl-2,4-dioxo-3-azabicyclo[3.2.1]octan-1-ylamino)acetyl)pyrrolidine-2-carbonitrile], the melting point (in general, the temperature of the solid-liquid transition) fell in the range of 141 to 144 °C.
Take `CC1(C)[C@@H](Cn2cncn2)CC[C@@]1(C)NCC(=O)N1CCC[C@H]1C#N` (as salt: methanesulfonate) [Example 9, (S)-1-(2-((1R,3S)-3-((1H-1,2,4-Triazol-1-yl)methyl)-1,2,2-trimethylcyclopentylamino)acetyl)pyrrolidine-2-carbonitrilemethanesulfonate]: the melting point lay in the range of 150 to 155 °C.
The same measure, in the same setting: for `CC1(C)[C@@H](Cn2cnnn2)CC[C@@]1(C)NCC(=O)N1C[C@@H](F)C[C@H]1C#N` (as salt: methanesulfonate) [Example 31, (2S,4S)-1-(2-((1R,3S)-3-((1H-Tetrazol-1-yl)methyl)-1,2,2-trimethylcyclopentylamino)acetyl)-4-fluoropyrrolidine-2-carbonitrile methanesulfonate] the value was 210 to 214 °C; for `CC1(C)[C@@H](CS(=O)(=O)c2ccc(S(C)(=O)=O)cc2)CC[C@@]1(C)NCC(=O)N1C[C@H](F)C[C@H]1C#N` [Example 43, (2S,4R)-4-Fluoro-1-(2-((1R,3S)-1,2,2-trimethyl-3-((4-(methylsulfonyl)phenylsulfonyl)methyl)cyclopentylamino)acetyl)pyrrolidine-2-carbonitrile], 163 to 166 °C.
`CC1(C)[C@@H](NCC(=O)N2CCC[C@H]2C#N)CC[C@@]1(C)c1nc(-c2ccc(F)cc2)no1` (as salt: methanesulfonate) [Example 66, (S)-1-(2-((1S,3R)-3-(3-(4-Fluorophenyl)-1,2,4-oxadiazol-5-yl)-2,2,3-trimethylcyclopentylamino)acetyl)pyrrolidine-2-carbonitrile methanesulfonate] had a melting point of 206 to 211 °C.
The same measure, in the same setting: to `CC1(C)[C@@]2(C)CC[C@]1(NCC(=O)N1CCC[C@H]1C#N)C(=O)OC2` [Example 79, (S)-1-(2-((1R,5R)-5,8,8-Trimethyl-2-oxo-3-oxabicyclo[3.2.1]octan-1-ylamino)acetyl)pyrrolidine-2-carbonitrile] belongs 174 to 177 °C.
